Data taken from US10538516B2, “Oxadiazole derivative and pharmaceutical containing same” (National Center for Geriatrics and Gerontology, priority 2015, dated 2020).
Read-outs that look alike come from different tables or passages of the source.

Molecular target: T1, GAβ-dependent amyloid fibril formation (Human Aβ1-40 + GM1-containing liposome) (Homo sapiens, UniProt P05067)
T1 construct: Human Aβ1-40 (cat. #4307-v, prepared by Peptide Institute); purchased Peptide Institute 4307-v
Assay: Thioflavin T (ThT) assay of GAβ-dependent amyloid fibril formation (Aβ1-40 with GM1-containing liposome)
Format: biochemical
Experimental: <3. Evaluation of the Compounds Based on the Inhibitory Activity Against Amyloid Fibril Formation in Thioflabin T (ThT) Assay>
Inhibitory activity against GAβ-dependent amyloid fibril formation of the above compounds 1 to 133 and 142 to 267 were evaluated in ThT assay.
(1) Preparation of Aβ Solution
Human Aβ1-40 (cat. #4307-v, prepared by Peptide Institute) was dissolved in a 0.02% ammonia solution (400 μM), and the mixture was treated in an ultracentrifuge (S110AT rotor, Hitachi) at 100,000 rpm for 3 hours. Approximately two-thirds of the upper layer of the supernatant was recovered and protein concentration was measured. The Aβ solution was aliquoted and stored at −80° C. until use, was melted immediately before use, and was diluted to 75 μM using phosphate buffer (PBS: cat. #10010, manufactured by Life Technologies).
(2) Preparation of GM1-Containing Liposome
Using a mixed solution of chloroform/methanol (1:1) as a solvent, a mixed solution of 100 mM each of cholesterol and sphingomyelin (both manufactured by Sigma-Aldrich) was prepared. To this mixed solution, GM 1 (cat. #1061, manufactured by Matreya Co.) was dissolved to make a solution of 50 mM concentration. This lipid mixed solution was aliquoted into glass test tubes and stored at −20° C. until use, was melted before use, was mixed with chloroform/methanol mixture (1:1) and mixed, and then the solvent was removed by applying nitrogen gas to the suspension. The dried lipid mixture was resuspended in PBS to be a GM1 concentration of 2.5 mM, and frozen and thawed 5 times with liquid nitrogen. The lipid suspension was centrifuged at 15,000 rpm for 10 minutes and the precipitate was resuspended in PBS to be a GM1 concentration of 2.5 mM. Using an ultrasonic crusher (XL-2000, MISONIX Co., Ltd.) equipped with a microchip, ultrasonic treatment was repeated on ice for 10 seconds until the suspension became transparent, and GM1-containing liposome was prepared. Immediately prior to use, PBS was added and diluted to a GM 1 concentration of 75 μM.
(3) Preparation of Compound Solution
Compounds 1 to 133 and 142 to 267 were prepared as 10 mM and 2 mM solution in DMSO, respectively. And each solution was diluted to 75 μM or 15 μM with PBS immediately prior to use.
(4) GAβ-Dependent Amyloid Fibril Formation
To a 96-well microplate, 5 μl each of the 75 μM Aβ solution prepared above (1), the compound solution prepared in (3) or 0.75% DMSO was mixed and incubated at room temperature for 10 minutes. Then, 5 μl each of 750 μM GM1-containing liposome prepared in (2) was added to each well and incubated at 37° C. for 18 hours.
ThT (manufactured by Sigma-Aldrich) was adjusted to 5 μM using 50 mM glycine-NaOH buffer (pH 8.5). Immediately before measurement, 10 μl from each well of (4) was transferred to a 96-well black plate. 50 μl of 5 μM ThT solution was added from each injector to each well using a multi-plate reader (ARVO-HTS, manufactured by Perkin Elmer), and then the optimal fluorescence of ThT bound to amyloid fiber (excitation wavelength 430 nm, fluorescence wavelength 490 nm) was measured.
The fluorescence intensity of ThT indicates the degree of amyloid fibrils formation. By calculating the ratio of the ThT fluorescence intensity between addition of the compound and without addition of the compound, the inhibition rate against amyloid fibril formation by the compound was calculated.

[1] = inhibition rate against amyloid fibril formation, final concentration of the compound 25 μM, read-out: Inhibitory activity ABC evaluation
[2] = @25 μM, read-out: ThT Inhibitory activity (% inhibition)

T1 sequence (P05067 672-711 limits assumed): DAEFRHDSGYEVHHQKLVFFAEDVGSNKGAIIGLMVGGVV

inhibition at 25 µM [1] [%]	inhibition at 25 µM [2] [%]	Structure (SMILES)	inhibition at 5 µM (@5 μM, read-out: ThT Inhibitory activity (% inhibition)) [%]
40 to 80	–	O=C(N[C@@H](CO)c1nc(-c2ccccc2C(F)(F)F)no1)c1ccccc1 [Compound 189, N-[(1S)-2-hydroxy-1-{3-[2-(trifluoromethyl)phenyl]-1,2,4-oxadiazol-5-yl}ethyl]benzamide]	–
> 80	–	O=C(N[C@@H](CO)c1nc(-c2cccc(C(F)(F)F)c2)no1)c1cc(F)cc(Cl)c1 [Compound 222, 3-chloro-5-fluoro-N-[(1S)-2-hydroxy-1-{3-[3-(trifluoromethyl)phenyl]-1,2,4-oxadiazol-5-yl}ethyl]benzamide]	–
40 to 80	64	O=C(N[C@@H](CO)c1nc(-c2ccc(C(F)(F)F)cc2)no1)c1ccc(Cl)cn1 [Compound 239, 5-chloro-N-[(1S)-2-hydroxy-1-{3-[4-(trifluoromethyl)phenyl]-1,2,4-oxadiazol-5-yl}ethyl]pyridine-2-carboxamide]	–
< 40	–	CS(=O)(=O)Nc1ccc(-c2nnc([C@@H](CO)NC(=O)c3ccc(Cl)cc3)o2)cc1 [Compound 108, (R)-4-chloro-N-(2-hydroxy-1-(5-(4-(methyl-sulfonamido)phenyl)-1,3,4-oxzdiazol-2-yl)ethyl)benzamide]	–
> 80	–	O=C(N[C@@H](CO)c1nc(-c2ccc(C(=O)C(F)(F)F)cc2)no1)c1ccccc1 [Compound 165, N-[(1S)-2-hydroxy-1-{3-[4-(2,2,2-trifluoroacetyl)phenyl]-1,2,4-oxadiazol-5-yl}ethyl] benzamide]	–
> 80	91	O=C(N[C@@H](CO)c1nc(-c2ccc(F)cc2)no1)c1ccc(F)cc1 [Compound 172, 4-fluoro-N-[(1S)-1-[3-(4-fluorophenyl)-1,2,4-oxadiazol-5-yl]-2-hydroxyethyl] benzamide]	–
> 80	–	COc1ccc(-c2noc([C@H](CO)NC(=O)c3ccccc3)n2)cc1F [Compound 144, N-[(1S)-1-[3-(3-fluoro-4-methoxyphenyl)-1,2,4-oxadiazol-5-yl]-2-hydroxyethyl]benzamide]	–
> 80	–	O=C(N[C@@H](CO)c1nc(-c2ccc(C(F)(F)F)cc2)no1)c1ccc(F)nc1 [Compound 157, 6-fluoro-N-[(1S)-2-hydroxy-1-{3-[4-(trifluoromethyl)phenyl]-1,2,4-oxadiazol-5-yl}ethyl] pyridine-3-carboxamide]	–
40 to 80	–	O=C(CCc1nc(-c2ccc(OC(F)(F)F)cc2)no1)N1CCCc2ccccc21 [Compound 12, 1-{3,4-dihydroquinolin-1(2H)-yl}-3-[3-{4-(trifluoromethoxy)phenyl}-1,2,4-oxadiazol-5-yl]propan-1-one]	–
40 to 80	–	CCCN(C(=O)CCc1nc(-c2ccc(OC)cc2)no1)c1cncc(Cl)c1 [Compound 5, N-(5-chloropyridin-3-yl)-3-{3-(4-methoxyphenyl)-1,2,4-oxadiazol-5-yl}-N-propylpropanamide]	–
40 to 80	–	O=C(N[C@@H](CCO)c1nc(-c2ccc(OC(F)(F)F)cc2)no1)c1ccc(Cl)cc1 [Compound 75, (S)-4-chloro-N-(3-hydroxy-1-[3-{4-(trifluoro-methoxy)phenyl}-1,2,4-oxadiazol-5-yl]propyl) benzamide]	–
40 to 80	73	O=C(N[C@@H](CO)c1nc(-c2csc3ccccc23)no1)c1ccc(F)cc1 [Compound 230, N-[(1S)-1-[3-(1-benzothiophen-3-yl)-1,2,4-oxadiazol-5-yl]-2-hydroxyethyl]-4-fluorobenzamide]	–
40 to 80	–	O=C(N[C@@H](CO)c1nc(-c2cc(Cl)c(Cl)[nH]2)no1)c1ccc(F)cc1 [Compound 249, N-[(1S)-1-[3-(4,5-dichloro-1H-pyrrol-2-yl)-1,2,4-oxadiazol-5-yl]-2-hydroxyethyl]-4-fluorobenzamide]	–

Structure (SMILES)	inhibition at 25 µM [1] [%]	inhibition at 25 µM [2] [%]	inhibition at 5 µM (@5 μM, read-out: ThT Inhibitory activity (% inhibition)) [%]
NC(Cc1c[nH]c2ccccc12)c1nc(-c2ccc3c(c2)OC(F)(F)O3)no1 (stereo not shown) [Compound 40, 1-{3-(2,2-difluorobenzo[d] [1,3]dioxol-5-yl)-1,2,4-oxadiazol-5-yl}-2-(1H-indol-3-yl)ethan-1-amine]	> 80	80	38
